From patent publication US20230331718A1, “COMPOSITIONS FOR MODULATING SPLICING” (Skyhawk Therapeutics, Inc., priority 2020, published 2023)
pEC50, pIC50: −log10 of the molar value.

Experiments:
[1] = test system: SMN2 Splicing D7 (SMN Δ7 transcript); experiment: SMN Quantitative Splicing Assay (qPCR); assay type: cell-based, human; settings: 24 h, SMA patient fibroblasts (GM03813), 2.5 µM to 0.6 nM
Protocol: Spinal muscular atrophy (SMA) patient fibroblasts (GM03813, Coriell) were plated in 96-well plates at 50,000 cells/well. […] Treated cells were lysed and cDNA synthesized using the Fast Advanced Cells-to-Ct kit (Thermofisher A35378) according to the manufacturer’s instructions. 2 µL of each cDNA were used in qPCR reactions. […] Reactions were run in a Quant Studio 6 qPCR instrument with default settings.

SMN2 Protein = experiment: SMN Protein Assay (MSD); assay type: cell-based, human; settings: SMA patient fibroblasts, 48 hours, 0.6 nM to 2.5 µM
Protocol: Spinal muscular atrophy (SMA) patient fibroblasts were plated in 96-well plates at 7,000 cells/well. Compounds were added in concentrations ranging from 0.6 nM to 2.5 µM, incubated for 48 hours and the cells were lysed with 100 µL of lysis buffer. 20 µL of lysate was used for SMN protein measurement by Mesoscale Discovery (MSD) assay developed by PharmOptima (Michigan). A standard curve prepared with SMN protein ranging from 1 µg/ml to 19.5pg/ml was used in each MSD plate to calculate the absolute SMN protein amount in each sample.

| SMILES | pIC50 ([1]; Homo sapiens, Fibroblast) | pEC50 (SMN2 Protein) | pIC50 [1] |
| --- | --- | --- | --- |
| CN(c1cnc(-c2cc3cnn(C)c(=O)c3cc2O)nn1)[C@H]1C[C@@H]2CC[C@@](C)(N2)[C@H]1F [Compound 183] | 7.82 to 11.00 | 7.82 to 11.00 |  |
| CN(c1cnc(-c2cc3occc(=O)c3cc2O)nn1)[C@@H]1CC2COC[C@H](N2)[C@@H]1F [Compound 67] | 6.30 to 7.00 | 7.00 to 7.29 |  |
| Cc1cc2cc(-c3ncc(N(C)[C@H]4CC5CCC(N5)[C@H]4F)nn3)c(O)cc2cn1 (stereo partly drawn) [Compound 44] | 7.82 to 11.00 | 7.82 to 11.00 |  |
| CN(c1cnc(-c2cc3ncn(C)c(=O)c3cc2O)nn1)[C@@H]1CC2CCC(N2)[C@@H]1F (single isomer, unassigned) [Compound 3A] | 7.30 to 7.80 | 7.30 to 7.80 |  |
| [2H]C([2H])([2H])N(c1cnc(-c2cc3c(F)cn(CC)c(=O)c3cc2O)nn1)[C@@H]1C[C@H]2CC[C@H](N2)[C@@H]1F [Compound 202] | 7.00 to 7.29 | 7.82 to 11.00 |  |
| CC(C)n1cnc2cc(-c3ncc(N(C)C4CC5CCC(N5)[C@H]4F)nn3)c(O)cc2c1=O (stereo partly drawn) [Compound 30] | 6.30 to 7.00 | 6.30 to 7.00 |  |
| CCc1cc(=O)c2cc(-c3ncc(N(C)[C@H]4C[C@@H]5CCC(N5)[C@H]4F)nn3)c(O)cc2o1 [Compound 118] | 7.82 to 11.00 | 7.82 to 11.00 |  |
| CCc1coc2cc(-c3ncc(N(C)[C@@H]4C[C@H]5CC[C@H](N5)[C@@H]4F)nn3)c(O)cc2c1=O [Compound 93] | 7.30 to 7.80 | 7.30 to 7.80 |  |
| CN(c1cnc(-c2cc3c(=O)n(C)ccc3cc2O)nn1)[C@H]1CC2CC[C@@H](N2)[C@H]1F [Compound 82] | 7.82 to 11.00 | 7.82 to 11.00 |  |
| CN(c1cnc(-c2cc3ncn(C)c(=O)c3cc2O)nn1)C1C[C@@]2(C)CCC(N2)[C@@H]1F (stereo partly drawn) [Compound 35] | 7.82 to 11.00 | 7.82 to 11.00 |  |
| Cc1cc2cc(-c3ncc(N(C)[C@@H]4CC5CCC(N5)[C@@H]4F)nn3)c(O)cc2cn1 (stereo partly drawn) [Compound 43] | 7.00 to 7.29 | 7.30 to 7.80 |  |
| CN(c1cnc(-c2cc3c(=O)ccoc3cc2O)nn1)[C@H]1CC2CCCC(N2)[C@H]1F (stereo partly drawn) [Compound 110] | 7.00 to 7.29 | 6.30 to 7.00 |  |
| Cc1cnc2cc(O)c(-c3ncc(N(C)[C@@H]4CC5CCC(N5)[C@@H]4F)nn3)cc2n1 (stereo partly drawn) [Compound 51] | 7.00 to 7.29 | 7.00 to 7.29 |  |
| CN(c1cnc(-c2cc3ccn(C)c(=O)c3cc2O)nn1)C1CC2CC(F)(F)C(C1)N2 (stereo not drawn) [Compound 142] |  | 7.82 to 11.00 | 7.30 to 7.80 |
| CN(c1cnc(-c2cc3occc(=O)c3cc2O)nn1)C1CC2CCC(N2)C1F (stereo not drawn) [Compound 17] | 7.30 to 7.80 | 7.30 to 7.80 |  |
| CN(c1cnc(-c2cc3ncn(C)c(=O)c3cc2O)nn1)C1CC2CC(F)(F)C(C1)N2 (stereo not drawn) [Compound 144] |  | 7.82 to 11.00 | 7.82 to 11.00 |
| CN(c1cnc(-c2cc3occc(=O)c3cc2O)nn1)[C@@H]1CC2COC[C@@H](C1)N2 [Compound 69] | 7.82 to 11.00 | 7.82 to 11.00 |  |
| Cc1nc2cc(O)c(-c3ncc(N(C)[C@@H]4C[C@H]5CCC(N5)[C@@H]4F)nn3)cc2nc1C [Compound 86] | 7.00 to 7.29 | 7.00 to 7.29 |  |
| CN(c1cnc(-c2cc3ncn(C)c(=O)c3cc2O)nn1)[C@@H]1C[C@H]2CCCC(N2)[C@@H]1F [Compound 124] | 7.30 to 7.80 | 7.30 to 7.80 |  |
| CN(c1cnc(-c2cc3ccn(C)c(=O)c3cc2O)nn1)[C@@H]1CC2CC[C@](C)(N2)[C@@H]1F [Compound 172] | 7.82 to 11.00 | 7.82 to 11.00 |  |
| CN(c1cnc(-c2cc3c(F)cn(C)c(=O)c3cc2O)nn1)[C@@H]1CC2CC[C@H](N2)[C@@H]1F [Compound 65] | 7.30 to 7.80 | 7.82 to 11.00 |  |
| CN(c1cnc(-c2cc3ncn(C(F)F)c(=O)c3cc2O)nn1)[C@H]1CC2CC[C@@H](N2)[C@H]1F [Compound 195] | 7.82 to 11.00 | 7.82 to 11.00 |  |
| CN(c1cnc(-c2cc3oc(C(F)(F)F)cc(=O)c3cc2O)nn1)[C@H]1C[C@@H]2CCC(N2)[C@H]1F [Compound 80] | 7.82 to 11.00 | 7.82 to 11.00 |  |
| CCn1c(C)nc2cc(-c3ncc(N(C)[C@H]4CC5CC(F)(F)C(C4)N5)nn3)c(O)cc2c1=O (stereo partly drawn) [Compound 215] | 7.30 to 7.80 | 7.30 to 7.80 |  |
